Data set [1] relates to beta amyloid production. The experiment in a line: Repressor Release Assay (RRA). It counts as cell-based. Conditions: for APPI % of Example #98: relative to Example 98. As for the experimental part:
CHO-K1 cells were cultured in whole DMEM media (DMEM—High Glucose with 10% fetal bovine serum, 1% Non-essential Amino Acids, and 1% Penicillin-Streptomycin) at 37° C. with 5% CO2. Two million cells were plated into 10-cm dishes 24 hrs prior to transfection.
Transient transfections were completed as recommended by Gibco BRL using their Lipofectamine Plus system. First, 6 μg of pRSVO-luc and 6 μg of APP-lacI construct DNA were added to 460 μL Opti-Mem transfection media and incubated with 30 μL Plus reagent for 15 minutes. Then, a lipid mixture of 40 μL Lipofectamine reagent and 460 μL Opti-Mem transfection media was incubated with the DNA-Plus reagent mixture for 15 minutes. During the DNA-lipid incubation, the CHO-K1 cells were washed once and covered in 5.0 mL DMEM media without Penicillin-Streptomycin. The DNA-lipid preparation was then layered onto these cells and incubated at 37° C. overnight.
[…] transfected cells per well (100 μL total volume) were plated into sterile, opaque Packard 96-well Culture-Plates in clear DMEM whole media (DMEM—without phenol red) and incubated at 37° C. with 5% CO2 for 3-5 hours.
Compounds were diluted using two different protocols; one protocol was used for compounds supplied neat (weighed powder in vial) and the other protocol was used for compounds supplied in solution (20 mM in DMSO in 96-well plates). For both protocols, 25 mM Hepes and 25 mM Hepes/1% DMSO were prepared fresh to be used as diluent. The Hepes/DMSO was used as the diluent control on all experimental plates.
The following table depicts the steps for compound dilution (please note that the last step was the addition of compound to cells/media in tissue culture plate).
Because some compounds were present in 96-well format at 20 mM, the following represents the protocol for their dilution (note that an average molecular weight of these compounds was used to calculate these dilutions and as above, the last step was the addition of compound to cells/media in tissue culture plate).
Once the compounds were diluted, they were applied in duplicate on cells in tissue culture plates (prepared above). Cells were incubated with compound at 37° C. with 5% CO2 for an additional 36-48 hours.
Luciferase assays (LucLite reagent, Packard) were performed and were read on a Packard TopCount instrument. Media was removed from each 96-well plate and replaced with 100 μL PBS per well (with Mg^2+ and Ca^2+). An equal volume (100 μL) of the LucLite lysis/substrate buffer was added to each well and the plates were sealed and mixed in the dark on a rotary shaker for 15-30 minutes at room temperature. Luciferase readings were then taken on the TopCount instrument. Measurements were expressed as relative light units (RLU) and are calculated and analyzed in MS Excel as follows: […]

Data set [2] deals with CHO-K1 cells. The experiment in a line: Toxicity in RRA (loss of luciferase signal). To be noted: toxicity = loss of signal (<0.75 fold increase).
Protocol: The beta amyloid inhibitory activity of the compounds of the present invention was determined using the Repressor Release Assay (RRA).
“Fold Increase” refers to the amount of luciferase activity (measured in relative light units) over diluent control. “SEM” refers to the standard error of the mean for fold increase.
Where [3] appears, read: Conc 10 μg/ml, luciferase activity over diluent control, read-out: APPI Fold Increase.
Setting [4] is: Conc 20 μg/ml, luciferase activity over diluent control.

Read-outs that look alike come from different tables or passages of the source.

On to `C=CC(O)[C@@H](NS(=O)(=O)c1cccc(Cl)c1)[C@@H](C)CC` (stereo partly drawn) [Example 193, 3-chloro-N-{(1 S)-2-hydroxy-1-[(1S)-1-methylpropyl]-3-butenyl}benzenesulfonamide], for which the fold induction at 10 µg/mL in data set [1] (setting [3]) stood at 1.78. Further, the “(%)APPI Toxicity” value in data set [2] (Conc 10 μg/ml) is on record as 1 (1=non-toxic).
For the molecule `CC[C@H](C)[C@H](NS(=O)(=O)c1cccc(Cl)c1)C(O)(CC)CC` [Example 255, 3-chloro-N-{(1S)-2-ethyl-2-hydroxy-1-[(1S)-1-methylpropyl]butyl}benzenesulfonamide], the fold induction at 10 µg/mL in data set [1] (setting [3]) is 2.03. In addition, the “(%)APPI Toxicity” value in data set [2] (Conc 10 μg/ml) was 1 (1=non-toxic).
For `C[C@H](NS(=O)(=O)c1ccccc1F)[C@@H](O)c1ccccc1` [Example 111, 2-fluoro-N-[(1 S,2 S)-2-hydroxy-1-methyl-2-phenylethyl] benzenesulfonamide], the “APPI Fold Increase” value in data set [1] (setting [4]) is given as 1.7 fold. In data set [1] (Conc 20 μg/ml), the “APPI % of Example #98” value is listed as 47.8%. Moreover, the “(%)APPI Toxicity” value in data set [2] (Conc 20 μg/ml) is 1 (1=non-toxic).
Regarding `CC[C@H](C)[C@@H](CO)NS(=O)(=O)c1ccc(Br)cc1` [Example 98, 4-bromo-N-[(1S,2S)-1-(hydroxymethyl)-2-methylbutyl]-benzenesulfonamide], the fold induction at 3 µg/mL in data set [1] (Conc 3 μg/ml, luciferase activity over diluent control, read-out: APPI Fold Increase) came to 1.79. Further, the “(%)APPI Toxicity” value in data set [2] (Conc 3 μg/ml), in data set [2] (Conc 10 μg/ml) and in data set [2] (Conc 20 μg/ml) was 1 (1=non-toxic) in each case.
As to `CC[C@H](C)[C@H](NS(=O)(=O)c1cccc(Cl)c1)C(O)CC(C)C` (stereo partly drawn) [Example 192, 3-chloro-N-{(1S)-2-hydroxy-4-methyl-1-[(1S)-1-methylpropyl]pentyl}benzenesulfonamide], the fold induction at 10 µg/mL in data set [1] (setting [3]) worked out at 2.21. Moreover, the “(%)APPI Toxicity” value in data set [2] (Conc 10 μg/ml) is 1 (1=non-toxic).
In the case of `O=S(=O)(N[C@H](CO)c1ccccc1)c1ccc(Br)cc1` [Example 101, 4-bromo-N-[(1S)-2-hydroxy-1-phenylethyl]benzenesulfonamide], the fold induction at 20 µg/mL in data set [1] (Conc 20 μg/ml, luciferase activity over diluent control, read-out: APPI Fold Increase) amounted to 1.6. The “(%)APPI Toxicity” value in data set [2] (Conc 20 μg/ml) is recorded as 1 (1=non-toxic).
For the molecule `CC[C@H](C)[C@H](NS(=O)(=O)c1ccc(Cl)cc1)C(C)O` (stereo partly drawn) [Example 165, 4-Chloro-N-[(1S,2S)-1-(hydroxyethyl)-2-methylbutyl]benzenesulfonamide], the fold induction at 10 µg/mL in data set [1] (setting [3]) was 2.05. Moreover, the “(%)APPI Toxicity” value in data set [2] (Conc 10 μg/ml) is 1 (1=non-toxic).
The matching figures for `CC[C@H](C)[C@H](NS(=O)(=O)c1cccc(Cl)c1)C(O)(CC(C)C)CC(C)C` [Example 252, 3-chloro-N-{(1S)-2-hydroxy-2-isobutyl-4-methyl-1-[(1S)-1-methylpropyl]pentyl}benzenesulfonamide]: 1.8 and 1 (1=non-toxic).
For the molecule `CCC(CC)[C@@H](CO)NS(=O)(=O)c1ccc(Cl)cc1` [Example 52, 4-chloro-N-[(1S)-2-ethyl-1-(hydroxymethyl)butyl]benzenesulfonamide], the fold induction at 20 µg/mL in data set [1] (Conc 20 μg/ml, luciferase activity (RLU) over diluent control, read-out: APPI Fold Increase) was determined as 6.2. Further, in data set [2] (Conc 20 μg/ml, 1=non-toxic, 0=toxic), the “(%)APPI Toxicity” value is on record as 1 (1=non-toxic).
For the molecule `C=C(C)C(O)(C(=C)C)[C@@H](NS(=O)(=O)c1ccc(F)cc1)[C@@H](C)CC` [Example 243, 4-fluoro-N-{(1S)-2-hydroxy-2-isopropenyl-3-methyl-1-[(1S)-1-methylpropyl]-3-butenyl}benzenesulfonamide], the fold induction at 10 µg/mL in data set [1] (setting [3]) stood at 1.7. Further, the “(%)APPI Toxicity” value in data set [2] (Conc 10 μg/ml) is 1 (1=non-toxic).
For the molecule `CC[C@H](C)[C@H](NS(=O)(=O)c1ccc(Br)cc1)C(O)C(C)(C)C` (stereo partly drawn) [Example 149, 4-bromo-N-{(1S)-2-hydroxy-3,3-dimethyl-1-[(1S)-1-methylpropyl]butyl}benzenesulfonamide], the “(%)APPI Toxicity” value in data set [2] (Conc 10 μg/ml) is 1 (1=non-toxic).
For the molecule `CC[C@H](C)[C@@H](CO)N(CCNC(=O)OC(C)(C)C)S(=O)(=O)c1ccc(Cl)cc1` [Example 42, tert-butyl 2-{([4-chlorophenyl)sulfonyl][(1S,2S)-1-(hydroxymethyl)-2-methylbutyl]amino} ethyl carbamate], in data set [1] (setting [4]), the “APPI Fold Increase” value was determined as 1.9 fold. In data set [1] (Conc 20 μg/ml), the “APPI % of Example #98” value came to 71.7%.
As to `CC[C@H](C)[C@H](NS(=O)(=O)c1ccc(Br)cc1)C(O)CC(C)C` (stereo partly drawn) [Example 150, 4-bromo-N-{(S)-2-hydroxy-4-methyl-1-[(1S)-1-methylpropyl]pentyl}benzenesulfonamide], in data set [2] (Conc 10 μg/ml), the “(%)APPI Toxicity” value is 1 (1=non-toxic).
Still for that read-out and setting: under `CCCCCCC(O)(CCCCCC)[C@@H](NS(=O)(=O)c1ccc(F)cc1)[C@@H](C)CC` [Example 236, 4-fluoro-N-{(1S)-2-hexyl-2-hydroxy-1-[(1S)-1-methylpropyl]octyl}benzenesulfonamide] stands 1 (1=non-toxic).
The same measure, in the same setting: to `CC[C@H](C)[C@H](NS(=O)(=O)c1ccc(F)cc1)C(O)(c1cccc2ccccc12)c1cccc2ccccc12` [Example 248, 4-fluoro-N-((1S,2S)-1-{hydroxy[di(1-naphthyl)]methyl}-2-methylbutyl)benzenesulfonamide] belongs 1 (1=non-toxic); to `CCCCCC(O)(CCCCC)[C@@H](NS(=O)(=O)c1ccc(Br)cc1)[C@@H](C)CC` [Example 212, 4-bromo-N-{(1S)-2-hydroxy-1-[(1S)-1-methylpropyl]-2-pentylheptyl}benzenesulfonamide], 1 (1=non-toxic); to `CC[C@H](C)[C@H](NS(=O)(=O)c1ccc(Br)cc1)C(O)(CC(C)C)CC(C)C` [Example 214, 4-bromo-N-{(1S)-2-hydroxy-2-isobutyl-4-methyl-1-[(1S)-1-methylpropyl]pentyl} benzenesulfonamide], 1 (1=non-toxic).
On the same count and under the same terms, under `CCCCCCC(O)[C@@H](NS(=O)(=O)c1ccc(F)cc1)[C@@H](C)CC` (stereo partly drawn) [Example 128, 4-fluoro-N-{(1S)-2-hydroxy-1-[(1S)-1-methylpropyl]octyl}benzenesulfonamide] stands 1 (1=non-toxic).
Consider `CC[C@H](C)[C@H](NS(=O)(=O)c1ccccc1F)C(O)C1CCCC1` (stereo partly drawn) [Example 202], for which the “APPI Fold Increase” value in data set [1] (Conc 10 μg/ml, luciferase activity over diluent control) is recorded as 1.62 fold. The “APPI % of Example #98” value in data set [1] (Conc 10 μg/ml) is reported as 55.79%.
With `C[C@H](NC(=O)Cc1cc(F)cc(F)c1)C(=O)N[C@H](C(=O)OC(C)(C)C)c1ccccc1` [DAPT, reference compound], the “fold increase in luciferase activity” value in data set [1] (at 10 μg/mL, luciferase activity over diluent control, transfected CHO-K1 cells) is 6.0-28.1 fold increase.
On to `CC[C@H](C)[C@H](NS(=O)(=O)c1ccc(Cl)cc1)C(O)C1CCCC1` (stereo partly drawn) [Example 166, 4-chloro-N-{(1S,2S)-1-[cyclopentyl(hydroxy)methyl]-2-methylbutyl}benzenesulfonamide], for which, in data set [2] (Conc 10 μg/ml), the “(%)APPI Toxicity” value is 1 (1=non-toxic).
The same measure, in the same setting: to `C=CCC(O)[C@@H](NS(=O)(=O)c1ccc(Cl)cc1)[C@@H](C)CC` (stereo partly drawn) [Example 175, 4-chloro-N-{(1S)-2-hydroxy-1-[(1S)-1-methylpropyl]-4-pentenyl}benzenesulfonamide] belongs 1 (1=non-toxic); to `CCCCCC(O)[C@@H](NS(=O)(=O)c1ccc(F)cc1)[C@@H](C)CC` (stereo partly drawn) [Example 129, 4-fluoro-N-{(1S)-2-hydroxy-1-[(1S)-1-methylpropyl]heptyl}benzenesulfonamide], 1 (1=non-toxic); to `CCCCCC(O)[C@@H](NS(=O)(=O)c1ccc(Cl)cc1)[C@@H](C)CC` (stereo partly drawn) [Example 168, 4-chloro-N-{(1S)-2-hydroxy-1-[(1S)-1-methylpropyl]heptyl}benzenesulfonamide], 1 (1=non-toxic).

These data come from patent publication US7166622B2, “Substituted phenylsulfonamide inhibitors of beta amyloid production” (Wyeth, priority 2002, dated 2007).
